target: Cell division control protein 42 homolog (Homo sapiens, UniProt P60953); assay: inhibition of fluorescent GTP binding to Cdc42 wt – biochemical, bead-based multiplex flow cytometry, additional SAR set, SAR follow-up (AID 2022); details: not given
Sequence (P60953 whole entry): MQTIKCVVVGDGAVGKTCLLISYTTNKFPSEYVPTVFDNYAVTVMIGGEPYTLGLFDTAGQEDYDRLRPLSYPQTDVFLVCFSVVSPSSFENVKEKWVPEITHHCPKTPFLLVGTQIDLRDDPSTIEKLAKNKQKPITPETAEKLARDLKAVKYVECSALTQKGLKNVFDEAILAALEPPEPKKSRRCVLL

SMILES | EC50 [µM]
O=C1N=c2ccc(Br)cc2=C1c1[nH]c2ccccc2c1NO [5-bromanyl-3-[3-(oxidanylamino)-1H-indol-2-yl]indol-2-one] | > 30
O=C1N=c2c(Br)cccc2=C1c1[nH]c2ccccc2c1NO [7-bromanyl-3-[3-(oxidanylamino)-1H-indol-2-yl]indol-2-one] | > 30
O=C1Nc2c(F)cccc2C1=C1Nc2ccccc2C1=O | > 30
COc1ccc(C(=O)C#Cc2ccccc2)cc1 [1-(4-methoxyphenyl)-3-phenyl-2-propyn-1-one] | > 30
O=C1Nc2ccccc2/C1=C1/Nc2ccccc2C1=O [2-[(3Z)-2-oxo-2,3-dihydro-1H-indol-3-ylidene]-2,3-dihydro-1H-indol-3-one] | > 30
O=C1Nc2c(Br)cccc2/C1=C1/Cc2ccccc2C1=O [(3E)-7-bromo-3-(3-oxo-1H-inden-2-ylidene)-1H-indol-2-one] | > 30
COC(=O)c1ccc(C(=O)C#Cc2ccccc2)cc1 [4-(1-oxo-3-phenylprop-2-ynyl)benzoic acid methyl ester] | > 30
O=C1Nc2c(Br)cccc2C1=C1Nc2ccccc2C1=O | > 30
O=C(C#Cc1ccccc1)c1cccnc1 [3-phenyl-1-pyridin-3-ylprop-2-yn-1-one] | > 30
COc1ccc2cc(CC(=O)O)ccc2c1 [2-(6-methoxynaphthalen-2-yl)ethanoic acid] | > 30
O=C(C#Cc1ccccc1)c1ccc(F)cc1 [UNM-0000306059] | > 30
CCCCS(=O)(=O)n1c(N)c(C#N)c(-c2cc(OC)c(OC)c(OC)c2)c1C(=O)c1ccccc1 [2-amino-5-benzoyl-1-butylsulfonyl-4-(3,4,5-trimethoxyphenyl)-3-pyrrolecarbonitrile] | > 30
C[C@@H](C(=O)O)c1cccc(Oc2ccccc2)c1 [calcium;2-(3-phenoxyphenyl)propanoic acid;hydrate] | > 30
O=C1NC(=O)/C(=C2/C(=O)Nc3ccccc32)N1 | > 30
CSc1ccc(/C=C2/C(C)=C(CC(=O)O)c3cc(F)ccc32)cc1 [{6-Fluoro-2-methyl-3-[1-(4-methylsulfanyl-phenyl)-meth-(E)-ylidene]-3H-inden-1-yl}-acetic acid] | > 30
O=C1Nc2ccccc2/C1=C1/Cc2ccccc2C1=O [UNM-0000305763] | > 30
O=C1NC(=S)N/C1=C1\C(=O)Nc2ccccc21 [(3Z)-3-(5-oxo-2-sulfanylideneimidazolidin-4-ylidene)-1H-indol-2-one] | > 30
CC(=O)Oc1ccccc1C(=O)O [2-(acetyloxy)benzoic acid] | > 30
COc1ccc(S(=O)(=O)n2c(N)c(C#N)c(-c3ccccc3)c2C(=O)c2ccc(Br)cc2)cc1 | > 30
O=C1N=c2ccccc2=C1c1[nH]c2ccccc2c1NO [3-[3-(hydroxyamino)-1H-indol-2-yl]-2-indolone] | > 30
O=C(C#Cc1ccccc1)c1ccc(OC(F)(F)F)cc1 | > 30

Further lines, results first:

EC50 [µM] | SMILES
22.8 | COc1ccc(S(=O)(=O)n2c(N)c(C#N)c(-c3cncc(Br)c3)c2C(=O)c2ccccc2)cc1 [2-amino-5-benzoyl-4-(5-bromo-3-pyridinyl)-1-(4-methoxyphenyl)sulfonyl-3-pyrrolecarbonitrile]
> 30 | COc1cc(-c2c(C#N)c(N)n(S(=O)(=O)c3c(C(C)C)cc(C(C)C)cc3C(C)C)c2C(=O)c2ccccc2)cc(OC)c1OC [2-azanyl-5-(phenylcarbonyl)-4-(3,4,5-trimethoxyphenyl)-1-[2,4,6-tri(propan-2-yl)phenyl]sulfonyl-pyrrole-3-carbonitrile]
> 30 | O=C(C#Cc1ccccc1)c1ccccc1[N+](=O)[O-] [UNM-0000306038]
> 30 | O=C(C#Cc1ccccc1)c1ccc([N+](=O)[O-])cc1 [1-(4-nitrophenyl)-3-phenyl-2-propyn-1-one]
> 30 | CC(C(=O)O)c1cccc(C(=O)c2ccccc2)c1 (stereo not given) [2-(3-benzoylphenyl)propanoic acid]
> 30 | O=C1Nc2ccc(Br)cc2C1=C1Nc2ccccc2C1=O
> 30 | COc1ccc(S(=O)(=O)n2c(N)c(C#N)c(-c3cc(Br)c(OC)c(OC)c3)c2C(=O)c2ccccc2)cc1 [UNM-0000305782]
> 30 | O=[N+]([O-])c1ccc(C#Cc2ccccc2)cc1
> 30 | N#Cc1ccc(C(=O)C#Cc2ccccc2)cc1 [4-(3-phenylprop-2-ynoyl)benzenecarbonitrile]
> 30 | O=C(C#Cc1ccccc1)c1ccc(Cl)cc1 [UNM-0000306055]
> 30 | CC1=C(CC(=O)O)c2cc(F)ccc2/C1=C/c1ccc([S+](C)[O-])cc1 (stereo not given) [UNM-0000306136]
> 30 | O=C(C#Cc1ccccc1)c1ccccc1 [UNM-0000306039]
0.027 | O=C1Nc2c(Cl)cccc2C1=C1Nc2ccccc2C1=O
28.1 | O=C1N=c2c(F)cccc2=C1c1[nH]c2ccccc2c1NO [7-fluoro-3-[3-(hydroxyamino)-1H-indol-2-yl]-2-indolone]
> 30 | O=C1Nc2cccc(Br)c2/C1=C1/Cc2ccccc2C1=O
> 30 | O=C1N=c2c(Cl)cccc2=C1c1[nH]c2ccccc2c1NO [7-chloro-3-[3-(hydroxyamino)-1H-indol-2-yl]-2-indolone]

same assay, conditions: inactive by the depositor's call

EC50 [µM] | SMILES
11.2 | COc1ccc(-c2c(C#N)c(N)n(S(C)(=O)=O)c2C(=O)c2ccccc2)cc1Br [2-azanyl-4-(3-bromanyl-4-methoxy-phenyl)-1-methylsulfonyl-5-(phenylcarbonyl)pyrrole-3-carbonitrile]
16.6 | CC(C)Cc1ccc([C@H](C)C(=O)O)cc1 [(S)-2-(4-Isobutyl-phenyl)-propionic acid]
7.21 | N#Cc1c(-c2ccc(Cl)cc2)c(C(=O)c2ccccc2)n(S(=O)(=O)c2ccc([N+](=O)[O-])cc2)c1N [UNM-0000305780]

Source: BindingDB's records for doi:10.7270/Q2Z31X2S (Nmmlsc, 2009)
